The source of these data is patent US10233195B2, “Anti-fibrotic pyridinones” (InterMune, Inc., priority 2014, dated 2019).

Bounds are passed on as bounds.

This assay concerns TGF-b induced Endothelin-1 production. In words: ET-1 assay: inhibitory effect on TGF-b induced endothelin-1 production. It is filed as cell-based. The conditions noted are these: Homo sapiens, Fibroblast; fibroblasts, stimulant (TGFb, serum, LPA etc), ET-1 in media by ELISA, 4-parameter fit. The method, then: Assay of Inhibitory Effect on TGF-b Induced Endothelin-1 Production
Fibroblasts (primary human lung and dermal, HFL-1, 3T3 etc) are seeded in 96-well plates at ˜15000 cells/well and serum starved for 0-48 hours. After media exchange, compounds serially diluted in DMSO are added to the cells. After a brief incubation of ˜30 min, stimulants (TGFb, serum, LPA etc) are added followed by further incubation for 16-48 hours. Media is then harvested and stored frozen in plate format for later endothelin-1 (ET-1) determination by ELISA. Toxicity measurements are made using the ATPlite kit (Perkin-Elmer). ET-1 is quantified using an ELISA kit (R&D Systems). The amount of ET-1 produced in the assay wells are back-calculated using the ELISA standard. The ability of a compound to inhibit ET-1 production is typically analyzed by fitting dose-response curves to a 4-parameter logistic function to obtain an EC50 value. A measure of cytotoxicity (CC50) is likewise reported from the same experiment using the ATPlite data.
Compounds of some embodiments were prepared according to synthetic methods described herein and assay data obtained for EC50 against ET-1. The assay data obtained is presented in Table 2, in which A=less than 50 μM, B=greater than or equal to 50 μM and less than or equal to 200 μM; and C=greater than 200 μM.
`Cc1cc(=O)n(-c2cccc3c2OCO3)cc1-c1cnn(C)c1` [Compound 232] displayed a half-maximal effective concentration (EC50) of more than 200 µM.
In the case of `Cc1cc(=O)n(-c2ccc3[nH]cnc3c2)cc1-c1cnn(C)c1` [Compound 233] it was more than 200 µM.
In the case of `CCc1cc(=O)n(-c2ccc(OC(F)(F)F)cc2)cc1-c1cnn(C)c1` [Compound 235] it was 50 to 200 µM.
For `CC(C)c1cc(=O)n(-c2ccc(OC(F)(F)F)cc2)cc1-c1cnn(C)c1` [Compound 236] the value was 50 to 200 µM.
Consider `Cn1cc(-c2cn(-c3ccc(OC(F)(F)F)cc3)c(=O)cc2C(F)(F)F)cn1` [Compound 240], for which the EC50 is more than 200 µM.
For `Cc1cc(=O)n(-c2ccc(OC(F)(F)F)cc2)cc1-c1cccnc1` [Compound 241] the value was more than 200 µM; for `Cc1cc(=O)n(-c2ccc(OC(F)(F)F)cc2)cc1-c1ccncc1` [Compound 242], more than 200 µM.
In the case of `Cc1cc(=O)n(-c2ccc(OC(F)(F)F)cc2)cc1-n1ccnc1` [Compound 244] it was more than 200 µM; in that of `Cc1cc(=O)n(-c2ccc(OC(F)(F)F)cc2)cc1-c1ccnn1C` [Compound 247], more than 200 µM; in that of `Cc1cc(=O)n(-c2ccc(OC(F)(F)F)cc2)cc1-c1cnc2nccn2c1` [Compound 248], more than 200 µM.
For `Cc1cc(=O)n(-c2ccc(OC(F)(F)F)cc2)cc1-c1ccc2cn(C)nc2c1` [Compound 250] the value was 50 to 200 µM; for `Cc1cc(=O)n(-c2ccc(OC(F)(F)F)cc2)cc1-c1nn[nH]n1` [Compound 253], more than 200 µM; for `Cc1cc(=O)n(-c2ccc(OC(F)(F)F)cc2)cc1-c1ccc2c(ccn2C)c1` [Compound 255], more than 200 µM.
Regarding `Cc1cc(=O)n(-c2ccc(OC(F)(F)F)cc2)cc1-c1nnn(C)n1` [Compound 256], the EC50 is more than 200 µM.
In the case of `Cc1cc(=O)n(-c2ccc(OC(F)(F)F)cc2)cc1-c1nnnn1C` [Compound 257] it was more than 200 µM; in that of `Cc1cc(=O)n(-c2ccc(OC(F)(F)F)cc2)cc1-c1cnsc1` [Compound 264], more than 200 µM; in that of `O=c1ccc(Br)cn1-c1ccc(F)cc1` [Compound 265], more than 200 µM.
For `COc1cccc(-n2cc(Br)ccc2=O)c1` [Compound 266] the value was more than 200 µM; for `CC(C)Oc1ccc(-n2cc(Br)ccc2=O)cc1` [Compound 267], more than 200 µM.
In the case of `O=c1ccc(Br)cn1-c1cccc(C(F)(F)F)c1` [Compound 268] it was more than 200 µM; in that of `O=c1ccc(Br)cn1-c1ccc(Cl)cc1` [Compound 269], more than 200 µM.
`O=c1ccc(Br)cn1-c1ccc(OC(F)(F)F)cc1` [Compound 270] registered an EC50 of more than 200 µM.
In the case of `CC(=O)Nc1cccc(-n2cc(Br)ccc2=O)c1` [Compound 271] it was more than 200 µM; in that of `O=c1ccc(Br)cn1-c1cccc(F)c1` [Compound 272], more than 200 µM.
As to `CCOc1ccc(-n2cc(Br)ccc2=O)c(C)c1` [Compound 273], the EC50 was more than 200 µM.
For `O=c1ccc(C(F)(F)F)cn1-c1cccc(F)c1` [Compound 274] the value was more than 200 µM; for `O=c1ccc(C(F)(F)F)cn1-c1ccc(OC(F)(F)F)cc1` [Compound 275], more than 200 µM; for `CC(=O)Nc1cccc(-n2cc(C(F)(F)F)ccc2=O)c1` [Compound 277], more than 200 µM.
`O=c1ccc(C(F)(F)F)cn1-c1cncnc1` [Compound 279] displayed an EC50 of more than 200 µM.
Compound `O=c1ccc(C(F)(F)F)cn1-c1ccccc1Cl` [Compound 281] had an EC50 of more than 200 µM.
In the case of `Cc1ccc(=O)n(-c2ccccc2F)c1` [Compound 283] it was more than 200 µM.
For `C#Cc1ccc(=O)n(-c2ccccc2)c1` [Compound 287] the value was more than 200 µM; for `CC(C)Oc1ccc(-n2cc(-c3ccc(F)cc3)ccc2=O)cc1` [Compound 288], 50 to 200 µM.
In the case of `O=c1ccc(-c2ccc(F)cc2)cn1-c1cccc(C(F)(F)F)c1` [Compound 289] it was 50 to 200 µM.

Usually EC50 stands for the concentration needed to bring the measured effect to its halfway point. Lower therefore signals higher potency in that assay.
